Results published in US20220160669A1, “PARENTERAL NUTRITION FORMULATION” (BAXTER INTERNATIONAL INC., priority 2020, published 2022).

Key:
Format in all cases: in vivo, pig
[1] = test system: Il-10; test: Serum cytokine quantification, Il-10
Excerpt: (§1) Neonatal Yorkshire/Landrace cross bred piglets (n=72; six at a time from the same litter, repeating 12 times) were obtained from Oak Hill Genetics (Ewing, Ill.) after 48-hour sow reared for colostrum consumption and iron supplementation.
(§2) The influence of the respective supplements on inflammation was investigated by determining Il-6, Il-1beta, TNF-alpha and Il-10 serum levels in the intervention groups compared to EN and PN according to Milo et al., Effects of Short-Chain Fatty Acid-Supplemented Total Parenteral Nutrition on Intestinal Pro-Inflammatory Cytokine Abundance. Digestive Diseases and Sciences 2002; 47:2049-2055. Jejunal and ileal samples were homogenized in double-distilled water, and the Bradford protein assay (Biorad, Hercules, Calif., USA) was performed on homogenate and plasma samples. Protein (30 μg) from each sample was denatured by boiling, and proteins were separated by size using 12.5% sodium dodecyl sulfate polyacrylamide gel electrophoresis. Separated proteins were transferred to polyvinylidene difluoride membranes (Biorad) using a semidry transfer apparatus (Biorad). Western blot analysis for TNF-alpha, IL-1beta, Il-10 and IL-6 was performed using porcine-specific polyclonal antibodies (Endogen, Woburn, Mass., USA). A mouse anti-pig monoclonal TNF-alpha antibody was used to detect TNF-alpha ([…]). Rabbit anti-pig polyclonal antibodies specific for IL-1beta and IL-6 were used to detect IL-1beta (17,500 kDa), Il-10 (18,600 kDa) and IL-6 (26,000 kDa). Membranes were developed using the Opti-4CN kit (Biorad) and photographed using the FOTO/Analyst Image Analysis System (Fotodyne, Inc., Hartland, Wis., USA). Densitometry of TNF-alpha, IL-1beta, IL-6, and Il-10 was performed using Collage Image Analysis Software 4.0 (Fotodyne, Inc.). Results are shown in FIG. 15 (Il-6), FIG. 16 (Illbeta), FIG. 17 (TNF-alpha) and FIG. 18 (Il-10).

[2] = test system: Neonatal Yorkshire/Landrace cross bred piglets; test: Intestinal histomorphology: villus height and crypt depth; design: key to Villus (total) / Crypt (total): + denotes a positive effect (compared to standard PN); ++ a very positive effect; − denotes no difference; key to Total villus height / Total crypt depth: +++ indicate P < 0.01; ++ indicates P < 0.05; + indicates positive trends; = denotes no significant P value; − denotes negative trends; details: for % Δ from PN, Total C (crypt depth) / % Δ from PN, Total V (villus height): sum over sections; for Crypt (total) / Villus (total): all sections, compared to standard PN; for Total crypt depth / Total villus height: compared to standard PN (s-PN)
Protocol: as §1
Formalin-fixed intestinal samples were embedded in paraffin, sliced to approximately 5-μm thickness with a microtome and stained with hematoxylin and eosin (FIG. 6). Villus height, midvillus width, and crypt depth were measured by using a Nikon Optiphot-2 microscope (Nikon, Melville, N.Y.) and ImagePro Express software (Version 4.5; Media Cybernetics, Inc, Silver Spring, Md.) in 8 to 10 well-oriented villi and crypts. Villus surface area (villus height×midvillus width) was also calculated. In addition, intestinal segment circumference was measured to estimate intestinal surface area. The results are provided in FIGS. 7 through 12 (see there for details). […] The Table summarizes the average difference (in % of each Intervention Group (A, B, C, D) versus the PN Group) of the villus height and the crypt depth in the different sections of the gut, i.e. duodenum, jejunum, ileum and colon. The Intervention Groups show an improved villus height compared to the s-PN Group.

[3] = test system: sIgA; test: IgA quantification (jejunal sIgA, ELISA); design: key to IgA: + denotes a positive effect (compared to standard PN); ++ a very positive effect; − denotes no difference; details: for IgA: compared to standard PN; for Jejunal sIgA Concentration: compared to standard PN (s-PN)
Excerpt: as §1
Small intestine probes for IgA level determination were obtained by flushing the small intestine with chilled HBSS (Hank's Balanced Salt Solution). Nasal and bronchoalveolar washings for measurement of respiratory tract IgA levels were obtained by lavage with 1 mL phosphate-buffered saline solution under anesthesia. The washings were stored in a −80° C. freezer until IgA analysis. IgA was measured in small intestinal and respiratory tract washings by sandwich enzyme-linked immunosorbent assay using a polyclonal goat anti-mouse IgA (Sigma) to coat the plate, a purified mouse IgA (Zymed Laboratories, San Francisco, Calif.) as the standard, and a horseradish peroxidase-conjugated goat anti-mouse IgA (Sigma).

[4] = test system: Pro-inflammatory cytokines; test: Pro-inflammatory cytokines, summary (site not stated); design: key: + denotes a positive effect (compared to standard PN); ++ a very positive effect; − denotes no difference; details: compared to standard PN
Excerpt: as §1, §2

[5] = test system: Neonatal Yorkshire/Landrace cross bred piglets; test: Cognitive assessment by eyeblink conditioning; design: key: + denotes a positive effect (compared to standard PN); ++ a very positive effect; − denotes no difference; details: compared to standard PN
Excerpt: Eyeblink conditioning is an established Pavlovian method to assess the cerebellum and associated brainstem circuitry with hippocampus involvement that are essential for learning and memory. The eyeblink conditioning procedure took place in a sound-attenuating chamber. A fan was inside the chamber and ran throughout the experiment for ambient noise (70 dB). A speaker mounted to the wall of the chamber delivered the tone conditioned stimulus (CS). A small plastic air puff delivery nozzle (San Diego Instruments, San Diego, Calif.) was secured at approximately 2 cm from the piglet's left eye to deliver the unconditioned stimulus (US). After adaptation to the conditioning apparatus on study day 3, a total of five CS-US conditioning sessions occurred on study days 4-8 following. Each conditioning session consisted of 90 CS-US paired trials and 10 CS alone trials for a total of 100 trials/session. Every tenth trial was a CS alone trial. The CS-US paired trials included: a 500 ms auditory CS (1 kHz, 85 dB tone), a 400 ms interstimulus interval (ISI), followed by a 100 ms corneal airpuff US (10 psi). Both the CS and US were co-terminated at the exact same time. The CS alone trials consisted of a 500 ms auditory CS (1 kHz, 85 dB tone) only. There were random inter-trial intervals of 20 seconds throughout each session. Each conditioning session lasted no longer than 35 minutes. The San Diego Instruments eyeblink software was used to record conditioning session moment-to-moment infrared-reflectance data.

Compound: CCCC(=O)OCC(COC(=O)CCC)OC(=O)CCC [Tributyrin]
- serum levels of Il-10 (FIG. 18) ([1]; 10 mmol/L TPN (Groups A, C, D)): lower than in the standard PN Group P
- serum levels of Il-10 (FIG. 18) ([1]; 30 mmol/L TPN (Group B)): lower than in the standard PN Group P
- average duodenal crypt length (crypt depth, FIG. 8) ([2]; 10 mmol/L TPN): gave the best results
- average duodenal villous length (FIG. 7) ([2]; 10 mmol/L TPN): only slightly below the mean values determined for Groups B and D
- average ileal crypt depth (FIG. 11) ([2]; 10 mmol/L TPN): significant difference
- average jejunal crypt depth (FIG. 10) ([2]; 10 mmol/L TPN): lower
- % Δ from PN, Colon C (crypt depth) ([2]; 10 mmol/L TPN (Groups A, C, D)): +9%
- % Δ from PN, Duodenum C (crypt depth) ([2]; 10 mmol/L TPN (Groups A, C, D)): +11%
- % Δ from PN, Duodenum V (villus height) ([2]; 10 mmol/L TPN (Groups A, C, D)): +32%
- % Δ from PN, Ileum C (crypt depth) ([2]; 10 mmol/L TPN (Groups A, C, D)): +17%
- % Δ from PN, Ileum V (villus height) ([2]; 10 mmol/L TPN (Groups A, C, D)): +14%
- % Δ from PN, Jejunum C (crypt depth) ([2]; 10 mmol/L TPN (Groups A, C, D)): −8%
- % Δ from PN, Jejunum V (villus height) ([2]; 10 mmol/L TPN (Groups A, C, D)): +14%
- % Δ from PN, Total Total (crypt + villus) ([2]; 10 mmol/L TPN (Groups A, C, D)): +89%
- % Δ from PN, Total C (crypt depth) ([2]; 10 mmol/L TPN (Groups A, C, D)): +29%
- % Δ from PN, Total V (villus height) ([2]; 10 mmol/L TPN (Groups A, C, D)): +60%
- Crypt (total) ([2]; 10 mmol/L in PN): +
- Villus (total) ([2]; 10 mmol/L in PN): +
- Total crypt depth ([2]; 10 mmol/L): +
- Total villus height ([2]; 10 mmol/L): +
- average duodenal crypt length (crypt depth, FIG. 8) ([2]; 30 mmol/L TPN): better crypt depth than S-PN, but is not as good as Groups A, C and D
- average duodenal villous length (FIG. 7) ([2]; 30 mmol/L TPN): increased villous length compared to the other study groups
- % Δ from PN, Colon C (crypt depth) ([2]; 30 mmol/L TPN (Group B)): +10%
- % Δ from PN, Duodenum C (crypt depth) ([2]; 30 mmol/L TPN (Group B)): +12%
- % Δ from PN, Duodenum V (villus height) ([2]; 30 mmol/L TPN (Group B)): +12%
- % Δ from PN, Ileum C (crypt depth) ([2]; 30 mmol/L TPN (Group B)): +27%
- % Δ from PN, Ileum V (villus height) ([2]; 30 mmol/L TPN (Group B)): +31%
- % Δ from PN, Jejunum C (crypt depth) ([2]; 30 mmol/L TPN (Group B)): −14%
- % Δ from PN, Jejunum V (villus height) ([2]; 30 mmol/L TPN (Group B)): +5%
- % Δ from PN, Total Total (crypt + villus) ([2]; 30 mmol/L TPN (Group B)): +111%
- average jejunal crypt depth (FIG. 10) ([2]; 30 mmol/L TPN (Group B)): lower
- % Δ from PN, Total C (crypt depth) ([2]; 30 mmol/L TPN (Group B)): +63%
- % Δ from PN, Total V (villus height) ([2]; 30 mmol/L TPN (Group B)): +48%
- Crypt (total) ([2]; 30 mmol/L in PN): ++
- Villus (total) ([2]; 30 mmol/L in PN): ++
- Total crypt depth ([2]; 30 mmol/L): +
- Total villus height ([2]; 30 mmol/L): +
- average jejunal villous length (FIG. 9) ([2]; Group B, printed in b62 as 10 mmol/L TPN): relatively low
- IgA ([3]; 10 mmol/L in PN): ++
- Jejunal sIgA Concentration ([3]; 10 mmol/L): ++^5 (++ indicates P < 0.05)
- IgA ([3]; 30 mmol/L in PN): ++
- Jejunal sIgA Concentration ([3]; 30 mmol/L): ++^5 (++ indicates P < 0.05)
- Pro-inflammatory cytokines ([4]; 10 mmol/L in PN): −
- Pro-inflammatory cytokines ([4]; 30 mmol/L in PN): +
- Cognitive ([5]; 10 mmol/L in PN): −
- Cognitive ([5]; 30 mmol/L in PN): −

Compound: L-arginine, butanoate (3:4) [Arginine butyrate]
- serum levels of Il-10 (FIG. 18) ([1]; 10 mmol/L TPN (Groups A, C, D)): lower than in the standard PN Group P
- average duodenal crypt length (crypt depth, FIG. 8) ([2]; 10 mmol/L TPN): slightly better even than Groups A and D
- average duodenal villous length (FIG. 7) ([2]; 10 mmol/L TPN): only slightly below the mean values determined for Groups B and D
- average ileal crypt depth (FIG. 11) ([2]; 10 mmol/L TPN): close behind
- average jejunal crypt depth (FIG. 10) ([2]; 10 mmol/L TPN): gave the best results
- average jejunal villous length (FIG. 9) ([2]; 10 mmol/L TPN): gave the best results
- improvement of the gut architecture in total ([2]; 10 mmol/L TPN (Group C), versus other groups): most prominent improvement of the gut architecture
- % Δ from PN, Colon C (crypt depth) ([2]; 10 mmol/L TPN (Groups A, C, D)): +22%
- % Δ from PN, Duodenum C (crypt depth) ([2]; 10 mmol/L TPN (Groups A, C, D)): +15%
- % Δ from PN, Duodenum V (villus height) ([2]; 10 mmol/L TPN (Groups A, C, D)): +35%
- % Δ from PN, Ileum C (crypt depth) ([2]; 10 mmol/L TPN (Groups A, C, D)): +7%
- % Δ from PN, Ileum V (villus height) ([2]; 10 mmol/L TPN (Groups A, C, D)): +16%
- % Δ from PN, Jejunum C (crypt depth) ([2]; 10 mmol/L TPN (Groups A, C, D)): +3%
- % Δ from PN, Jejunum V (villus height) ([2]; 10 mmol/L TPN (Groups A, C, D)): +26%
- % Δ from PN, Total Total (crypt + villus) ([2]; 10 mmol/L TPN (Groups A, C, D)): +124%
- % Δ from PN, Total C (crypt depth) ([2]; 10 mmol/L TPN (Groups A, C, D)): +47%
- % Δ from PN, Total V (villus height) ([2]; 10 mmol/L TPN (Groups A, C, D)): +77%
- Crypt (total) ([2]; 10 mmol/L in PN): +
- Villus (total) ([2]; 10 mmol/L in PN): +
- Total crypt depth ([2]; 10 mmol/L): +
- Total villus height ([2]; 10 mmol/L): +
- gut architecture, systemic and local inflammation and systemic and local immunity (overall) ([2]; versus the Group which obtained standard PN): especially beneficial
- Jejunal sIgA Concentration ([3]; 10 mmol/L): +++^3 (+++ indicate P < 0.01)
- Pro-inflammatory cytokines ([4]; 10 mmol/L in PN): ++
- Cognitive ([5]; 10 mmol/L in PN): −
